In patent EP3394284B1, “ENZYMATIC METHOD FOR THE EVALUATION OF XYLOSE” (Venter Pharma, S.L, priority 2015, dated 2017):
Values belong to the molecule of their own block, whether it stands above or below them.

How the values were obtained:
XylB-wt2 [1] = molecular target: T1, XylB-wt2 (Caulobacter vibrioides, UniProt B8H1Z0); experiment: Substrate specificity: XylB-wt2 activity with mono- and disaccharides (NADH formation at 340 nm); type: biochemical, C. crescentus NA1000
T1 construct: made in house; host or cells: E. coli BL21(DE3)
T1 sequence (B8H1Z0 1-248): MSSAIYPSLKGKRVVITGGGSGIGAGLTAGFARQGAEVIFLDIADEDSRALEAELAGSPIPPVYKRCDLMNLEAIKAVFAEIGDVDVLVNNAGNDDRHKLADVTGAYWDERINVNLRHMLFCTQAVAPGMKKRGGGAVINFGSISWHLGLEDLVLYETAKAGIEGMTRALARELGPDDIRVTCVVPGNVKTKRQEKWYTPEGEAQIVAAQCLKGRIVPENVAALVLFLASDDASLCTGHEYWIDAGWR

XylB-wt2 [2] = molecular target: T1, XylB-wt2; experiment: Steady-state kinetic assays of purified XylB-wt2 for substrates and cofactor; type: biochemical, C. crescentus NA1000; details: for activity as cofactor of XylB-wt2: NAD^+ and NADP^+ both assayed, 'the first one' = NAD^+ (NADP^+ gave no activity)
Strep-TEV-XylB = molecular target: T2, Strep-TEV-XylB (Caulobacter vibrioides, UniProt B8H1Z0); details: data taken from Toivari M, 2012a; pH 9.0; cited from earlier work
T2 construct: Strep tag; TEV cleavage site
T2 sequence (B8H1Z0 1-248): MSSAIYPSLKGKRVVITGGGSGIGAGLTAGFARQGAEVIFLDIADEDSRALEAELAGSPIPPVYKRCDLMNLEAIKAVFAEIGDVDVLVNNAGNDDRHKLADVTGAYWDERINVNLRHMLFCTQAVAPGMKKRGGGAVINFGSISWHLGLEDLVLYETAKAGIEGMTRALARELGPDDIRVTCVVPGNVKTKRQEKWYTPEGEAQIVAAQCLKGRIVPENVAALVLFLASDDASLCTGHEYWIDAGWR

6His-tagged XylB = molecular target: T3, 6His-tagged XylB (Caulobacter vibrioides, UniProt B8H1Z0); details: data taken from Stephens C, 2007; cited from earlier work
T3 construct: 6His
T3 sequence (B8H1Z0 1-248): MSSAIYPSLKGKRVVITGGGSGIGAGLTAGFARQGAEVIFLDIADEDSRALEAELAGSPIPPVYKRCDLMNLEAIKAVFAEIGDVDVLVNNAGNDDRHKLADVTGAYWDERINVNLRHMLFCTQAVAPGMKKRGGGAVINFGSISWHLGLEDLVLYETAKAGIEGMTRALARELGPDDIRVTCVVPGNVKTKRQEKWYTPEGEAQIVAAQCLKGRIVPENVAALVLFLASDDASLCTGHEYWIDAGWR

[3] = substrate: NC(=O)c1ccc[n+]([C@@H]2O[C@H](COP(=O)([O-])OP(=O)(O)OC[C@H]3O[C@@H](n4cnc5c(N)ncnc54)[C@H](O)[C@@H]3O)[C@@H](O)[C@H]2O)c1; experiment: Steady-state kinetic assays of purified XylB-wt2 for substrates and cofactor; type: biochemical, C. crescentus NA1000; details: other: 25°C, pH 8.0, sugars with NAD^+ 0.5 mM, NAD^+ with D-xylose 5 mM
[4] = sugar concentration 100 mM, relative to D-xylose at 5 mM
[5] = considering the enzyme as a homohexameric protein
[6] = 25°C, pH 8.0, sugars with NAD^+ 0.5 mM, NAD^+ with D-xylose 5 mM, enzyme assumed monomer
[7] = sugar concentration 5 mM, relative to D-xylose

Molecule: 4-O-β-galactopyranosyl-D-xylose [Gaxilose]
Specific Activity (U/mg) (XylB-wt2 [1]; sugar concentration 100 mM): 0.7 U/mg
Relative Activity (%) (XylB-wt2 [1]; [4]): 2%

Specific Activity (U/mg) (XylB-wt2 [1]; sugar concentration 100 mM): 0.0 U/mg
Relative Activity (%) (XylB-wt2 [1]; [4]): 0%
Molecule: OC[C@H]1O[C@H](O[C@H]2[C@H](O)[C@@H](O)C(O)O[C@@H]2CO)[C@H](O)[C@@H](O)[C@@H]1O (mixture of isomers) [Maltose]

Specific Activity (U/mg) (XylB-wt2 [1]; sugar concentration 100 mM): 0.0 U/mg
Relative Activity (%) (XylB-wt2 [1]; [4]): 0%
Molecule: O=C(CO)[C@@H](O)[C@H](O)[C@H](O)CO [D-Fructose]

Molecule: NC(=O)c1ccc[n+]([C@@H]2O[C@H](COP(=O)([O-])OP(=O)(O)OC[C@H]3O[C@@H](n4cnc5c(N)ncnc54)[C@H](OP(=O)(O)O)[C@@H]3O)[C@@H](O)[C@H]2O)c1 [NADP^+]
activity as cofactor of XylB-wt2 (XylB-wt2 [2]): only displayed activity with the first one

Vmax (U·mg^-1) (XylB-wt2 [2]; [5]): 30.1 ±1.0 U·mg^-1
Molecule: NC(=O)c1ccc[n+]([C@@H]2O[C@H](COP(=O)([O-])OP(=O)(O)OC[C@H]3O[C@@H](n4cnc5c(N)ncnc54)[C@H](O)[C@@H]3O)[C@@H](O)[C@H]2O)c1 [NAD^+]
activity as cofactor of XylB-wt2 (XylB-wt2 [2]): only displayed activity with the first one
Km (Strep-TEV-XylB): 460 ± 50 µM
kcat (Strep-TEV-XylB): 31 ± 1.08 s⁻¹
Vmax (U·mg^-1) (6His-tagged XylB): 20.5 U·mg^-1

Molecule: D-Galactose
Specific Activity (U/mg) (XylB-wt2 [1]; sugar concentration 100 mM): 0.5 U/mg
Relative Activity (%) (XylB-wt2 [1]; [4]): 2%

Molecule: D-Glucose
Vmax (U·mg^-1) (XylB-wt2 [2]; [6]): 10.7 ±0.1 U·mg^-1
kcat (XylB-wt2 [2]; [6]): 4.78 ± 0.833 s⁻¹
Vmax (U·mg^-1) (XylB-wt2 [2]; [5]): 10.7 ±0.1 U·mg^-1
Specific Activity (U/mg) (XylB-wt2 [1]; sugar concentration 100 mM): 3.9 U/mg
Relative Activity (%) (XylB-wt2 [1]; [4]): 13%

Molecule: D-Mannose
Specific Activity (U/mg) (XylB-wt2 [1]; sugar concentration 100 mM): 0.0 U/mg
Relative Activity (%) (XylB-wt2 [1]; [4]): 0%

Molecule: D-Ribose
Specific Activity (U/mg) (XylB-wt2 [1]; sugar concentration 100 mM): 4.4 U/mg
Relative Activity (%) (XylB-wt2 [1]; [4]): 15%

Molecule: D-Xylose
Km (XylB-wt2 [2]; 25°C, pH 8.0, sugars with NAD^+ 0.5 mM, NAD^+ with D-xylose 5 mM): 41 ± 5 µM
Vmax (U·mg^-1) (XylB-wt2 [2]; [6]): 30.2 ±1.0 U·mg^-1
kcat (XylB-wt2 [2]; [6]): 13.5 ± 0.583 s⁻¹
catalytic efficiencies (kcat/KM) ratio D-xylose/ D-glucose (XylB-wt2 [2]; XylB-wt2, pH 8.0): 15000
Km (XylB-wt2 [2]; [5]): 41 ± 5 µM
Vmax (U·mg^-1) (XylB-wt2 [2]; [5]): 30.2 ±1.0 U·mg^-1
Km (Strep-TEV-XylB): 80 ± 20 µM
kcat (Strep-TEV-XylB): 22.67 ± 1.08 s⁻¹
Km (6His-tagged XylB): 760 µM
Vmax (U·mg^-1) (6His-tagged XylB): 27.5 U·mg^-1
Specific Activity (U/mg) (XylB-wt2 [1]; sugar concentration 5 mM): 30.0 U/mg
Relative Activity (%) (XylB-wt2 [1]; [7]): 100%

Molecule: L-Arabinose
Specific Activity (U/mg) (XylB-wt2 [1]; sugar concentration 5 mM): 4.8 U/mg
Relative Activity (%) (XylB-wt2 [1]; [7]): 16%

B1: XylB-wt2 (Caulobacter vibrioides NA1000) (protein)
chain: MSSAIYPSLKGKRVVITGGGSGIGAGLTAGFARQGAEVIFLDIADEDSRALEAELAGSPIPPVYKRCDLMNLEAIKAVFAEIGDVDVLVNNAGNDDRHKLADVTGAYWDERINVNLRHMLFCTQAVAPGMKKRGGGAVINFGSISWHLGLEDLVLYETAKAGIEGMTRALARELGPDDIRVTCVVPGNVKTKRQEKWYTPEGEAQIVAAQCLKGRIVPENVAALVLFLASDDASLCTGHEYWIDAGWR
notes: made in house; host or cells: E. coli BL21(DE3)
Km [3]: 78 ± 10 µM
Vmax [3]: 30.1 ±1.0 U·mg^-1
kcat [3]: 13.5 ± 1.08 s⁻¹
kcat/Km [3]: 173080 M⁻¹ s⁻¹
